Assay [1] has as its target T1, Nitric oxide synthase (neuronal, human recombinant) nNOS (Homo sapiens, UniProt P29475).
T1 construct: purchased Axxora LLC ALX-201-068
Put plainly: nNOS (human) enzyme assay, [3H]-L-arginine to L-citrulline. It counts as biochemical.
Method: nNOS (Human), eNOS (Human) Enzyme Assay
Human nNOS and eNOS Protocol:
Procedure for Human nNOS and eNOS
Primary stock solutions of test compounds at a concentration of 6 mM are prepared. The primary stock solutions of each test compound are prepared freshly in distilled water on the day of study. […] Concentration range of test compound utilized for nNOS are 0.001 to 300 μM and for eNOS are 0.003 to 1000 μM. The vehicle of the test compound or inhibitor is used as blank control.
(§2) All incubations are performed in duplicate:
(§3) Prepare the reaction mixture on ice by adding the following components with a micropipette to a polypropylene microcentrifuge tube:
Total reaction volume is 60 μL.
(§4) Mix using a vortex mixer and incubate the above reaction mixture at 37° C. in an incubator for 30 minutes.
(§5) Add 400 μL of ice-cold Stop Buffer at the end of the incubation period to stop the reaction. (The EDTA in the Stop Buffer chelates all of the available calcium.)
(§6) Mix using a vortex mixer and transfer the reaction samples to spin cups and centrifuge using a microcentrifuge, at 13,000 rpm for 30 sec. at room temperature.
(§7) Remove the spin cups from the holder and transfer 450 μL of eluate (containing the unbound L-citrulline) to scintillation vials. Add 3 mL of scintillation fluid and quantify the radioactivity in a liquid scintillation counter.
Calculation of IC50 Values:
(§8) Data is analyzed using a Sigmoidal dose-response (variable slope) curve to determine the IC50 value of the test compound. Y=Bottom+(Top−Bottom)/(1+10^((Log IC50−X)*Hill Slope))

For assay [2], the target named is 5-HT1D (Bos taurus, UniProt F1MMU1). The experiment in a line: 5-HT1D binding assay (agonist radioligand), bovine caudate membranes. The protocol:
(§1) 5-HT1D binding assays (agonist radioligand) were performed using bovine caudate membranes according to the methods of Heuring and Peroutka (J. Neurosci., 7: 894-903 (1987)). 5-HT1B (rat cerebral cortex) binding assays (agonist radioligand) were performed according to the method of Hoyer et. al. (Eur. J. Pharmacol., 118: 1-12 (1995)). For the purpose of result analysis, the specific ligand binding to the receptors is defined as the difference between the total binding and the nonspecific binding as determined in the presence of an excess of unlabelled ligand. The results are expressed as a percent of control specific binding obtained in the presence of the test compounds.

Assay [3] addresses T2, Nitric oxide synthase (endothelial, human recombinant) eNOS (Homo sapiens, UniProt P29474).
T2 construct: purchased Axxora LLC ALX-201-070
Put plainly: eNOS (human) enzyme assay, [3H]-L-arginine to L-citrulline. It counts as biochemical.
Method: Human nNOS and eNOS Protocol:
Procedure for Human nNOS and eNOS
Primary stock solutions of test compounds at a concentration of 6 mM are prepared. The primary stock solutions of each test compound are prepared freshly in distilled water on the day of study. […] Concentration range of test compound utilized for nNOS are 0.001 to 300 μM and for eNOS are 0.003 to 1000 μM. The vehicle of the test compound or inhibitor is used as blank control. […] The IC50 concentration of L-NAME was run in parallel as a control.
as §2, §3
Start the reaction by addition of the substrate (in 5 µL containing 1 μCi of [^3H]-L-Arginine+2.5 μM of unlabeled L-Arginine) to the reaction mixture. Total reaction volume is 60 μL.
as §4, §5, §6, §7
Calculation of IC50 Values:
as §8

In assay [4] the target is Recombinant human inducible NOS (iNOS) (Homo sapiens, UniProt P35228). The experiment in a line: Human iNOS assay, radiometric. It counts as biochemical. The note with it: Table 10, human iNOS; read-out: iNOSh. The protocol:
Recombinant human inducible NOS (iNOS) was produced in Baculovirus-infected Sf9 cells (ALEXIS). […] 15 μL of test substances are added to the mixture with the specific enzyme and pre-incubated at RT for 15 min. • 2. […] The incubation is carried out at 37° C. for 45 min. • 4. […] An aliquot 70 μL of the supernatant is added to 100 μL scintillation fluid. • 8.
The total volume of the reaction mixture is 150 μL in every well. All assays are performed at least in duplicate. Standard deviations are 10% or less.

In assay [5] the target is T3, 5-HT1B (Rattus norvegicus, UniProt P28564).
T3 construct: from tissue; host or cells: rat cerebral cortex
T3 sequence (P28564 whole entry): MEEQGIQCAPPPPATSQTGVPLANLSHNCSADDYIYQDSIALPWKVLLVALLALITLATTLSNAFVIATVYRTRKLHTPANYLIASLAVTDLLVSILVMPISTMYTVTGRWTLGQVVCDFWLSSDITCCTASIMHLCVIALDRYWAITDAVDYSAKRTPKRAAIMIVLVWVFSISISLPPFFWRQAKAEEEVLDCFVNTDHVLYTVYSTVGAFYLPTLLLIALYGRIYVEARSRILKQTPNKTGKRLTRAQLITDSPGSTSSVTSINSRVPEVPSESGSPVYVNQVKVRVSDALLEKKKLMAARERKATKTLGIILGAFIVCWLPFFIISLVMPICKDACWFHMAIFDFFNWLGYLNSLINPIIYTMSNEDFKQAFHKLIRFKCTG
The experiment in a line: 5-HT1B binding assay (agonist radioligand), rat cerebral cortex. The protocol:
as §1, with “compounds. IC50 values (concentration causing a half-maximal inhibition of control specific binding) and Hill coefficients (nH) were determined by non-linear regression analysis of the competition curves using Hill equation curve fitting and the inhibition constants (Ki) were calculated from the Cheng Prusoff equation (Ki=IC50/(1+(L/KD)), where L=concentration of radioligand in the assay, and KD=affinity of the radioligand for the receptor).” for “compounds.”

For assay [6], the system named is rats with experimental pancreatitis. Put plainly: Pancreatitis visceral pain model (DBTC), referred abdominal hypersensitivity, von Frey. The assay is classed as in vivo, rat. As for the experimental part: Adult male Sprague Dawley rats (Harlan, Indianapolis, Ind.), weighing 150-200 g were maintained in a climate-controlled room with ad lib food and water on a 12-h light/dark cycle (lights on at 07:00 hours). All procedures followed the policies of the International Association for the Study of Pain and the NIH guidelines for the handling and use of laboratory animals. Studies were approved by the University of Arizona IACUC.
Pancreatitis was produced by a tail vein injection of dibutyltin dichloride (DBTC, Aldrich, Milwaukee, Wis., 0.25 cc) dissolved in 100% ethanol at a dose of 8 mg/kg under isofluorane anesthesia (2-3 liters/min, 4.0%/vol until anesthetized, then 2.5%/vol throughout the procedure) (Vera-Portocarrero et al., 2006). Control animals were injected with the vehicle solution only (100% ethanol, 0.25 cc).
Referred abdominal hypersensitivity in the pancreatitis model was quantified by measuring the number of withdrawals events evoked by application of a calibrated von Frey filament (determined by either abdominal withdrawal, licking of the abdominal area, or whole body withdrawal). Rats were placed inside Plexiglas boxes on an elevated fine fiberglass screen mesh and acclimated for 30 minutes before testing. A 4 g von Frey filament was applied from underneath through the mesh floor, to the abdominal area at different points on the surface. […] The mean occurrence of withdrawal events in each trial is expressed as the number of responses to 10 applications as previously described (Vera-Portocarrero et al., 2003).
Significant differences between each experimental group for the behavioral test across time were detected by a two-factor ANOVA follow by the Fishers Least Significance Difference post-hoc test. One-factor ANOVA was used to detect significant differences in behavioral outcomes within each experimental group over time. A linear regression analysis was used to detect the dose-dependency of the effects. Significance was established at the p<0.05 level.

Where [7] appears, read: Table 11, bovine 1D receptor binding, read-out: 5HT1D.
The mark [8] stands for this setting: Table 15, read-out: IC50 in μM (Human eNOS).

Structures can show the parent of a compound that is named as a salt. Where two headings read alike, the source gives them in different places.

These results are taken from patent US8673909B2, “Indole compounds and methods for treating visceral pain” (NeurAxon, Inc., priority 2007, dated 2014).

Sequence of 5-HT1D (F1MMU1 1-377): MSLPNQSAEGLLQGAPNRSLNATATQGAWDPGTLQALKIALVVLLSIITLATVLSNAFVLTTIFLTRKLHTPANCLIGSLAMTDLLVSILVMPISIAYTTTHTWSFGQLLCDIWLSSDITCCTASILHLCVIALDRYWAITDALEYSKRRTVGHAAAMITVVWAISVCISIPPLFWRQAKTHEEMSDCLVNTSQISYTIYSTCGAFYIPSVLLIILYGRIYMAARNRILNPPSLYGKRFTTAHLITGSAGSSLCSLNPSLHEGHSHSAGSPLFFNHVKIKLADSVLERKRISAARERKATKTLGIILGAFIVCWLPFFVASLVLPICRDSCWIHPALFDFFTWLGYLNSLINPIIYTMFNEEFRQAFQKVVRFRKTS
T2 sequence (P29474 whole entry): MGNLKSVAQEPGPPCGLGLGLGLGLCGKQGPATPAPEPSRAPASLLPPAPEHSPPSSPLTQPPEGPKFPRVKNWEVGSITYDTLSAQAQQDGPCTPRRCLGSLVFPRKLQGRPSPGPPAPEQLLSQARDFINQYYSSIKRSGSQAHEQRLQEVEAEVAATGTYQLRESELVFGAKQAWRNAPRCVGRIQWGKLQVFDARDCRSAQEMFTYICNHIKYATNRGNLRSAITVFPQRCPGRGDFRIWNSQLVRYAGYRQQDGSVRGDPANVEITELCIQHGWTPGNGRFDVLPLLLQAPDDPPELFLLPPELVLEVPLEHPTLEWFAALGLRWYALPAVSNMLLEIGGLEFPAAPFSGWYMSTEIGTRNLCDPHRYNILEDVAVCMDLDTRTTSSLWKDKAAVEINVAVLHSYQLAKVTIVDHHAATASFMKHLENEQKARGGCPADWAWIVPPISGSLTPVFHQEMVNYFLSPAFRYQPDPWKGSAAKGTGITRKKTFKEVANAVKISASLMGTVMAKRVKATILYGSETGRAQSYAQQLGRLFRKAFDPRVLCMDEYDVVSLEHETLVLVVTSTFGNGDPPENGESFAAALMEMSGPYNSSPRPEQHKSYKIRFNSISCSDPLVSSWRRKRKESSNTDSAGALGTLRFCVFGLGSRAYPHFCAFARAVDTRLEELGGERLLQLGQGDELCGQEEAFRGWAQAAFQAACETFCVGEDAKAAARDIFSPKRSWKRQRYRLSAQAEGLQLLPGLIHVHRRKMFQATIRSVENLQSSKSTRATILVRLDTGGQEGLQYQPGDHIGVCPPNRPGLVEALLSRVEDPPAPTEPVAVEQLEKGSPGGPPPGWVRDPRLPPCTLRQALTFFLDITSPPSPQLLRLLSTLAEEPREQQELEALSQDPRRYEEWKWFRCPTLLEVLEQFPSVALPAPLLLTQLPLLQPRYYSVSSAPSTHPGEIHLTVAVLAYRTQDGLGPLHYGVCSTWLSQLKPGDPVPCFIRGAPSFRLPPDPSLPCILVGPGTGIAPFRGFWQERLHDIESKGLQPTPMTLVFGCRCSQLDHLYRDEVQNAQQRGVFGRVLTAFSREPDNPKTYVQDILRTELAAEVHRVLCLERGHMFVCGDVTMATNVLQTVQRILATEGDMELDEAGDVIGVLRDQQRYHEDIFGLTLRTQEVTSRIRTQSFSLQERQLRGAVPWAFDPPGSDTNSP
T1 sequence (P29475 whole entry): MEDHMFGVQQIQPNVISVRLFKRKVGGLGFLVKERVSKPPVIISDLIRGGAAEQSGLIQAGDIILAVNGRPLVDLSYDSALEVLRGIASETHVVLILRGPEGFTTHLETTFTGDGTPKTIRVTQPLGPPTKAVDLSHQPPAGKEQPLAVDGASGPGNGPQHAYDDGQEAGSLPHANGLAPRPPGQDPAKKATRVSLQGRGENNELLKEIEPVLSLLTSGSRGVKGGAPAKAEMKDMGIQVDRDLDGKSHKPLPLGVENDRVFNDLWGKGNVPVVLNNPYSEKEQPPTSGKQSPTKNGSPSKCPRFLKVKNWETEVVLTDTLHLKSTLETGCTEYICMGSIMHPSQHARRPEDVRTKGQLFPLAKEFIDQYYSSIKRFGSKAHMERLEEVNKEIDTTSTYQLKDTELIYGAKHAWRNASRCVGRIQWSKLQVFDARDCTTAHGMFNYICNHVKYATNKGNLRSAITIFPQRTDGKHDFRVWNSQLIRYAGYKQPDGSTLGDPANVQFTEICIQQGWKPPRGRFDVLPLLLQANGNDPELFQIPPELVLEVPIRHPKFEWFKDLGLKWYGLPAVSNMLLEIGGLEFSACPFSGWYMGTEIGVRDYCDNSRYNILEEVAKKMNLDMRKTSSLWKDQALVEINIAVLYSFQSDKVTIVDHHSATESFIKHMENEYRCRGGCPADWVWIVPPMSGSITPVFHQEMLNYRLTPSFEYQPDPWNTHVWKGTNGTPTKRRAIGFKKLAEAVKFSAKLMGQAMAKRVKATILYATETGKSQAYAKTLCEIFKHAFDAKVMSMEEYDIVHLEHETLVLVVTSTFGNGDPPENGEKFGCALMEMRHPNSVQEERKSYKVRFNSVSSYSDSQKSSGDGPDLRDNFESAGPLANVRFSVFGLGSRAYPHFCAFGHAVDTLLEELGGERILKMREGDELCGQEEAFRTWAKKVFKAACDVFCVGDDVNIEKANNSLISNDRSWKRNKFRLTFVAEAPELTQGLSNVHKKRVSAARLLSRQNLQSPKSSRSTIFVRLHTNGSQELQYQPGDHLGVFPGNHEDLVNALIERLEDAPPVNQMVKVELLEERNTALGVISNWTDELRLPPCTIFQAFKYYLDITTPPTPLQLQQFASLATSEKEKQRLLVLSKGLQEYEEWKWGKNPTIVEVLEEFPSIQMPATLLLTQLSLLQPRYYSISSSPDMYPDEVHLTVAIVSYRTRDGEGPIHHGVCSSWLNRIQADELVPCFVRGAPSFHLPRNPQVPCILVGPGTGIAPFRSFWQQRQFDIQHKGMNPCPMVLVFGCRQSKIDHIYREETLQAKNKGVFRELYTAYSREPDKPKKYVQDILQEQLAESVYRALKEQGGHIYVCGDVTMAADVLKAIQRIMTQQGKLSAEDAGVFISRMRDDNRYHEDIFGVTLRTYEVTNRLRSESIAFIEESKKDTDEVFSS

Regarding `CCNC1CCC(c2c[nH]c3ccc(NC(=N)c4cccs4)cc23)C1` (mixture of isomers) [Compound 26, N-(3-(3-(ethylamino)cyclopentyl)-1H-indol-5-yl)thiophene-2-carboximidamide], the eNOS/nNOS in assay [1] (Table 15, selectivity ratio) worked out at 55.6.

As to `CN1CCC(c2c[nH]c3ccc(NC(=N)c4cccs4)cc23)C1` (racemic) [Compound 6, N-(3-(1-methylpyrrolidin-3-yl)-1H-indol-5-yl)thiophene-2-carboximidamide], the IC50 in assay [2] (setting [7]) amounted to 0.19 µM; in assay [3] (Table 10, human eNOS, read-out: eNOSh), 38.7 µM; in assay [4], 35 µM; in assay [5] (Table 11, rat 1B receptor binding), 0.85 µM; in assay [1] (Table 10, human nNOS, read-out: nNOSh) it was 0.4 µM. For the same compound, in assay [1] (Table 10, ratio eNOS/nNOS), the e/n worked out at 97.

In the case of `CNC1CCCC(c2c[nH]c3ccc(NC(=N)c4cccs4)cc23)C1` (racemic) [Compound (±)-20, N-(3-((1S,3R)-3-(Methylamino)cyclohexyl)-1H-indol-5-yl)thiophene-2-carboximidamide], the IC50 in assay [2] (read-out: 5HT 1D, Table 14) stood at 2.8 µM; in assay [5] (Table 14, read-out: 5HT 1B), 20 µM.

As to `CNC1CCCC(c2c[nH]c3ccc(NC(=N)c4cccs4)cc23)C1` (single isomer, unassigned) [Compound 20a, N-(3-(3-(methylamino)cyclohexyl)-1H-indol-5-yl)thiophene-2-carboximidamide dihydrochloride], the IC50 in assay [2] (read-out: 5HT 1D, Table 14, listed as 20a (isomer-1), dihydrochloride) worked out at 3.2 µM; in assay [3] (Table 14, read-out: Human eNOS), 49.3 µM; in assay [5] (Table 14, read-out: 5HT 1B) it was 1.3 µM.

For `CNC1CCCC(c2c[nH]c3ccc(NC(=N)c4cccs4)cc23)C1` (single isomer, unassigned) [Compound 20b, N-(3-(3-(methylamino)cyclohexyl)-1H-indol-5-yl)thiophene-2-carboximidamide dihydrochloride], the IC50 in assay [2] (read-out: 5HT 1D, Table 14, listed as 20b (isomer-2), dihydrochloride) stood at 1.4 µM; in assay [3] (Table 14, read-out: Human eNOS) it was 75 µM; in assay [5] (Table 14, read-out: 5HT 1B), 12 µM.

As for `CCN1CC=C(c2c[nH]c3ccc(NC(=N)c4cccs4)cc23)CC1` [Compound 19, N-(3-(1-ethyl-1,2,3,6-tetrahydropyridin-4-yl)-1H-indol-5-yl)thiophene-2-carboximidamide], the IC50 worked out at 68.4 µM in assay [3] (Table 13, read-out: Human eNOS) and 0.74 µM in assay [1] (Table 13, read-out: Human nNOS). The eNOS/nNOS in assay [1] (Table 13, selectivity ratio) is given as 92.4.

Turning to `N=C(Nc1ccc2[nH]cc(C3=CCN(CCO)CC3)c2c1)c1cccs1` [Compound 24, N-(3-(1-(2-hydroxyethyl)-1,2,3,6-tetrahydropyridin-4-yl)-1H-indol-5-yl)thiophene-2-carboximidamide], the IC50 in assay [3] (setting [8]) was determined as 74.1 µM; in assay [1] (Table 15, read-out: IC50 in μM (Human nNOS)), 0.748 µM. In assay [1] (Table 15, selectivity ratio), the eNOS/nNOS turned out to be 99.

Consider `N=C(Nc1ccc2[nH]cc(CCN3CCCC3)c2c1)c1cccs1` [Compound 25, N-(3-(2-(pyrrolidin-1-yl)ethyl)-1H-indol-5-yl)thiophene-2-carboximidamide], for which the IC50 in assay [3] (setting [8]) was found to be 9.92 µM; in assay [1] (IC50 in μM (Human nNOS), Table 15), 0.427 µM. For the same compound, the eNOS/nNOS in assay [1] (Table 15, selectivity ratio) was 23.2.

On to `CN1CCC[C@@H]1Cc1c[nH]c2ccc(NC(=N)c3cccs3)cc12` [Compound 27, (R)—N-(3-((1-Methylpyrrolidin-2-yl)methyl)-1H-indol-5-yl)thiophene-2-carboximidamide], for which the “reversal of tactile allodynia in pancreatitis visceral pain model” value in assay [6] is “reverts the tactile allodynia”.

Take `CNS(=O)(=O)Cc1ccc2[nH]cc(CCN(C)C)c2c1` [Sumatriptan, reference compound]: the IC50 in assay [2] (setting [7]) amounted to 0.059 µM.
